Source: ChEMBL document CHEMBL1275557, “First countrywide survey of acquired metallo-beta-lactamases in gram-negative pathogens in Italy” (2008)
≈ marks a conversion by molar mass, not a printed value.

How the values were obtained:
Assay type in all cases: functional
Pseudomonas aeruginosa [1] = test: Antibacterial activity against IMP-13 producing Pseudomonas aeruginosa clone C3 isolate PG-12X-03 by Etest method
Pseudomonas aeruginosa [2] = test: Antibacterial activity against VIM-1 producing Pseudomonas aeruginosa clone D2 isolate VA-06X-17 by Etest method
Pseudomonas aeruginosa [3] = test: Antibacterial activity against VIM-1 producing Pseudomonas aeruginosa clone A3 isolate FG-17X-08 by Etest method
Pseudomonas aeruginosa [4] = test: Antibacterial activity against VIM-2 producing Pseudomonas aeruginosa clone B2 isolate VA-06X-20 by Etest method
Pseudomonas aeruginosa [5] = test: Antibacterial activity against VIM-1 producing Pseudomonas aeruginosa clone G isolate NA-14X-13 by Etest method
Pseudomonas putida [6] = test: Antibacterial activity against nonreplicate Pseudomonas putida clinical isolate by Etest method
Pseudomonas aeruginosa [7] = test: Antibacterial activity against VIM-2 producing Pseudomonas aeruginosa clone B1 isolate SS-09X-45 by Etest method
Pseudomonas aeruginosa [8] = test: Antibacterial activity against VIM-2 producing Pseudomonas aeruginosa clone B3 isolate PV-05X-07 by Etest method
Proteus mirabilis = test: Antibacterial activity against nonreplicate Proteus mirabilis clinical isolate by Etest method
Pseudomonas aeruginosa [9] = test: Antibacterial activity against VIM-1 producing Pseudomonas aeruginosa clone D4 isolate VA-06X-47 by Etest method
Pseudomonas aeruginosa [10] = test: Antibacterial activity against IMP-13 producing Pseudomonas aeruginosa clone C1 isolate AV-13X-28 by Etest method
Pseudomonas aeruginosa [11] = test: Antibacterial activity against VIM-1 producing Pseudomonas aeruginosa clone A2 isolate NA-14X-32 by Etest method
Pseudomonas aeruginosa [12] = test: Antibacterial activity against VIM-2 producing Pseudomonas aeruginosa clone B3 isolate PV-05X-02 by Etest method
Pseudomonas aeruginosa [13] = test: Antibacterial activity against VIM-1 producing Pseudomonas aeruginosa clone A3 isolate NA-14X-34 by Etest method
Pseudomonas aeruginosa [14] = test: Antibacterial activity against VIM-1 producing Pseudomonas aeruginosa clone D2 isolate VA-06X-16 by Etest method
Pseudomonas aeruginosa [15] = test: Antibacterial activity against VIM-1 producing Pseudomonas aeruginosa clone A2 isolate NA-14X-26 by Etest method
Pseudomonas aeruginosa [16] = test: Antibacterial activity against VIM-1 producing Pseudomonas aeruginosa clone A1 isolate FG-17X-14 by Etest method
Pseudomonas aeruginosa [17] = test: Antibacterial activity against IMP-13 producing Pseudomonas aeruginosa clone C2 isolate NA-14X-02 by Etest method
Pseudomonas aeruginosa [18] = test: Antibacterial activity against VIM-1 producing Pseudomonas aeruginosa clone F isolate RM-11X-09 by Etest method
Enterobacter cloacae [19] = test: Antibacterial activity against nonreplicate Enterobacter cloacae clinical isolate by Etest method
Acinetobacter baumannii = test: Antibacterial activity against nonreplicate Acinetobacter baumannii clinical isolate by Etest method
Pseudomonas aeruginosa [20] = test: Antibacterial activity against VIM-1 producing Pseudomonas aeruginosa clone A2 isolate NA-14X-21 by Etest method
Klebsiella pneumoniae = test: Antibacterial activity against nonreplicate Klebsiella pneumoniae clinical isolate by Etest method
Pseudomonas aeruginosa [21] = test: Antibacterial activity against VIM-1 producing Pseudomonas aeruginosa clone D3 isolate VA-06X-65 by Etest method
Pseudomonas aeruginosa [22] = test: Antibacterial activity against VIM-2 producing Pseudomonas aeruginosa clone B2 isolate VA-06X-28 by Etest method
Pseudomonas aeruginosa [23] = test: Antibacterial activity against VIM-1 producing Pseudomonas aeruginosa clone D1 isolate VA-06X-63 by Etest method
Klebsiella aerogenes = test: Antibacterial activity against nonreplicate Enterobacter aerogenes clinical isolate by Etest method
[24] = Antibacterial activity against nonreplicate Burkholderia cepacia complex clinical isolate by Etest method
Enterobacter cloacae [25] = test: Antibacterial activity against VIM-1 producing Enterobacter cloacae isolate TO-16X-51 by Etest method
Pseudomonas aeruginosa [26] = test: Antibacterial activity against IMP-13 producing Pseudomonas aeruginosa clone C2 isolate NA-14X-10 by Etest method
Pseudomonas aeruginosa [27] = test: Antibacterial activity against VIM-2 producing Pseudomonas aeruginosa clone B2 isolate VA-06X-38 by Etest method
Pseudomonas aeruginosa [28] = test: Antibacterial activity against VIM-2 producing Pseudomonas aeruginosa clone B3 isolate CR-04X-14 by Etest method
Pseudomonas putida [29] = test: Antibacterial activity against VIM-1 producing Pseudomonas putida isolate RM-11X-11 by Etest method
Pseudomonas aeruginosa [30] = test: Antibacterial activity against VIM-1 producing Pseudomonas aeruginosa clone D isolate VA-06X-69 by Etest method
Pseudomonas aeruginosa [31] = test: Antibacterial activity against IMP-13 producing Pseudomonas aeruginosa clone C2 isolate NA-14X-11 by Etest method
Pseudomonas aeruginosa [32] = test: Antibacterial activity against IMP-13 producing Pseudomonas aeruginosa clone C2 isolate NA-14X-12 by Etest method
Pseudomonas aeruginosa [33] = test: Antibacterial activity against nonreplicate Pseudomonas aeruginosa clinical isolate by Etest method
Pseudomonas aeruginosa [34] = test: Antibacterial activity against VIM-1 producing Pseudomonas aeruginosa clone E isolate VA-06X-29 by Etest method

| Compound | MIC (Pseudomonas aeruginosa [1]) | MIC (Pseudomonas aeruginosa [2]) | MIC (Pseudomonas aeruginosa [3]) | MIC (Pseudomonas aeruginosa [4]) | MIC (Pseudomonas aeruginosa [5]) | MIC (Pseudomonas aeruginosa [7]) | MIC (Pseudomonas aeruginosa [8]) | MIC (Pseudomonas aeruginosa [9]) | MIC (Pseudomonas aeruginosa [10]) | MIC (Pseudomonas aeruginosa [11]) | MIC (Pseudomonas aeruginosa [12]) | MIC (Pseudomonas aeruginosa [13]) | MIC (Pseudomonas aeruginosa [14]) | MIC (Pseudomonas aeruginosa [15]) | MIC (Pseudomonas aeruginosa [16]) | MIC (Pseudomonas aeruginosa [17]) | MIC (Pseudomonas aeruginosa [18]) | MIC (Pseudomonas aeruginosa [20]) | MIC (Pseudomonas aeruginosa [21]) | MIC (Pseudomonas aeruginosa [22]) | also measured |
| --- | --- | --- | --- | --- | --- | --- | --- | --- | --- | --- | --- | --- | --- | --- | --- | --- | --- | --- | --- | --- | --- |
| C[C@@H](O)[C@H]1C(=O)N2C(C(=O)O)=C(SCCNC=N)C[C@H]12 [IMIPENEM ANHYDROUS] | > 32 µg/mL | > 32 µg/mL | > 32 µg/mL | > 32 µg/mL | > 32 µg/mL | > 32 µg/mL | > 32 µg/mL | > 32 µg/mL | > 16 µg/mL | > 32 µg/mL | > 32 µg/mL | > 32 µg/mL | > 32 µg/mL | > 32 µg/mL | > 32 µg/mL | > 32 µg/mL | > 32 µg/mL | > 32 µg/mL | > 32 µg/mL | > 32 µg/mL | MIC (Pseudomonas putida [6]): 16 µg/mL (≈ 53.4 µM); MIC (Proteus mirabilis): 8 µg/mL (≈ 26.7 µM); MIC (Enterobacter cloacae [19]): 4 µg/mL (≈ 13.4 µM); MIC (Acinetobacter baumannii): 4 µg/mL (≈ 13.4 µM); MIC (Klebsiella pneumoniae): 2 µg/mL (≈ 6.68 µM); MIC (Pseudomonas aeruginosa [23]): > 32 µg/mL; MIC (Klebsiella aerogenes): 16 µg/mL (≈ 53.4 µM); MIC [24]: 8 µg/mL (≈ 26.7 µM); MIC (Enterobacter cloacae [25]): 4 µg/mL (≈ 13.4 µM); MIC (Pseudomonas aeruginosa [26]): > 32 µg/mL; MIC (Pseudomonas aeruginosa [27]): > 32 µg/mL; MIC (Pseudomonas aeruginosa [28]): > 32 µg/mL; MIC (Pseudomonas putida [29]): > 32 µg/mL; MIC (Pseudomonas aeruginosa [30]): > 32 µg/mL; MIC (Pseudomonas aeruginosa [31]): > 32 µg/mL; MIC (Pseudomonas aeruginosa [32]): > 32 µg/mL; MIC (Pseudomonas aeruginosa [33]): 8 µg/mL (≈ 26.7 µM); MIC (Pseudomonas aeruginosa [34]): > 32 µg/mL |
| C[C@H]1COc2c(N3CCN(C)CC3)c(F)cc3c(=O)c(C(=O)O)cn1c23.C[C@H]1COc2c(N3CCN(C)CC3)c(F)cc3c(=O)c(C(=O)O)cn1c23.O [LEVOFLOXACIN] | > 32 µg/mL | > 32 µg/mL | > 32 µg/mL | > 32 µg/mL | > 32 µg/mL | > 32 µg/mL | > 32 µg/mL | > 32 µg/mL | > 32 µg/mL | > 32 µg/mL | > 32 µg/mL | > 32 µg/mL | > 32 µg/mL | > 32 µg/mL | > 32 µg/mL | > 32 µg/mL | > 32 µg/mL | > 32 µg/mL | > 32 µg/mL | > 32 µg/mL | MIC (Pseudomonas aeruginosa [23]): > 32 µg/mL; MIC (Enterobacter cloacae [25]): > 32 µg/mL; MIC (Pseudomonas aeruginosa [26]): > 32 µg/mL; MIC (Pseudomonas aeruginosa [27]): > 32 µg/mL; MIC (Pseudomonas aeruginosa [28]): > 32 µg/mL; MIC (Pseudomonas putida [29]): 0.25 µg/mL; MIC (Pseudomonas aeruginosa [30]): > 32 µg/mL; MIC (Pseudomonas aeruginosa [31]): > 32 µg/mL; MIC (Pseudomonas aeruginosa [32]): > 32 µg/mL; MIC (Pseudomonas aeruginosa [34]): > 32 µg/mL |
| C[C@@H](O)[C@H]1C(=O)N2C(C(=O)O)=C(S[C@@H]3CN[C@H](C(=O)N(C)C)C3)[C@H](C)[C@H]12 [MEROPENEM] | > 32 µg/mL | > 32 µg/mL | > 32 µg/mL | > 32 µg/mL | > 32 µg/mL | > 32 µg/mL | 8 µg/mL (≈ 20.9 µM) | > 32 µg/mL | 8 µg/mL (≈ 20.9 µM) | > 32 µg/mL | 8 µg/mL (≈ 20.9 µM) | > 32 µg/mL | > 32 µg/mL | > 32 µg/mL | > 32 µg/mL | > 32 µg/mL | > 32 µg/mL | > 32 µg/mL | > 32 µg/mL | > 32 µg/mL | MIC (Pseudomonas aeruginosa [23]): > 32 µg/mL; MIC (Enterobacter cloacae [25]): 2 µg/mL (≈ 5.22 µM); MIC (Pseudomonas aeruginosa [26]): > 32 µg/mL; MIC (Pseudomonas aeruginosa [27]): > 32 µg/mL; MIC (Pseudomonas aeruginosa [28]): > 32 µg/mL; MIC (Pseudomonas putida [29]): > 32 µg/mL; MIC (Pseudomonas aeruginosa [30]): > 32 µg/mL; MIC (Pseudomonas aeruginosa [31]): > 32 µg/mL; MIC (Pseudomonas aeruginosa [32]): > 32 µg/mL; MIC (Pseudomonas aeruginosa [34]): > 32 µg/mL |
| COLISTIN | 0.5 µg/mL | 1 µg/mL | 0.5 µg/mL | 1 µg/mL | 2 µg/mL | 2 µg/mL | 1 µg/mL | 1 µg/mL | 2 µg/mL | 2 µg/mL | 1 µg/mL | 2 µg/mL | 1 µg/mL | 2 µg/mL | 1 µg/mL | 0.5 µg/mL | 1 µg/mL | 2 µg/mL | 0.5 µg/mL | 1 µg/mL | MIC (Pseudomonas aeruginosa [23]): 1 µg/mL; MIC (Enterobacter cloacae [25]): 0.25 µg/mL; MIC (Pseudomonas aeruginosa [26]): 0.5 µg/mL; MIC (Pseudomonas aeruginosa [27]): 1 µg/mL; MIC (Pseudomonas aeruginosa [28]): 2 µg/mL; MIC (Pseudomonas putida [29]): 0.25 µg/mL; MIC (Pseudomonas aeruginosa [30]): 1 µg/mL; MIC (Pseudomonas aeruginosa [31]): 0.5 µg/mL; MIC (Pseudomonas aeruginosa [32]): 0.5 µg/mL; MIC (Pseudomonas aeruginosa [34]): 2 µg/mL |
| GENTAMICIN | > 128 µg/mL | > 128 µg/mL | > 128 µg/mL | 8 µg/mL | > 128 µg/mL | > 128 µg/mL | 8 µg/mL | > 128 µg/mL | > 128 µg/mL | > 128 µg/mL | 8 µg/mL | > 128 µg/mL | > 128 µg/mL | > 128 µg/mL | > 128 µg/mL | > 128 µg/mL | > 128 µg/mL | > 128 µg/mL | > 128 µg/mL | 8 µg/mL | MIC (Pseudomonas aeruginosa [23]): > 128 µg/mL; MIC (Enterobacter cloacae [25]): 2 µg/mL; MIC (Pseudomonas aeruginosa [26]): > 128 µg/mL; MIC (Pseudomonas aeruginosa [27]): 8 µg/mL; MIC (Pseudomonas aeruginosa [28]): 8 µg/mL; MIC (Pseudomonas putida [29]): 4 µg/mL; MIC (Pseudomonas aeruginosa [30]): > 128 µg/mL; MIC (Pseudomonas aeruginosa [31]): > 128 µg/mL; MIC (Pseudomonas aeruginosa [32]): > 128 µg/mL; MIC (Pseudomonas aeruginosa [34]): > 128 µg/mL |
